Assay results: patent publication US9346809B2 (LEO PHARMA A/S, priority 2009, dated 2016)
Where two headings read alike, the source gives them in different places.

Tests used:
Format in all cases: biochemical
[1] = target: T1, JAK2 (catalytic domain, His-tag) (Homo sapiens, UniProt O60674); assay: JAK kinase assay (HTRF, phosphorylation of TK substrate-biotin), JAK2; conditions: ATP at Km (4 μM)
T1 construct: All four purified enzymes contain only the catalytic domain; His (N); purchased Carna Biosciences, Inc; host or cells: baculovirus expression system
How it was run: (§1)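 Per reaction, 5 ng JAK1, 0.1 ng JAK2, 0.3 ng JAK3 or 0.8 ng TYK2 (baculovirus-expressed catalytic domains) acted on 1 μM TK substrate-biotin at Km ATP for 20-30 min, RT. Phosphorylation measured by HTRF.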

[2] = target: T2, JAK1 (aa 850-1154, catalytic domain, GST-tag) (Homo sapiens, UniProt P23458); assay: JAK kinase assay (HTRF, phosphorylation of TK substrate-biotin), JAK1; conditions: ATP at Km (7 μM)
T2 construct: JAK1 (aa 850-1154) and TYK2 (aa 871-1187) are expressed with an N-terminally fused GST-tag; GST (N); purchased Carna Biosciences, Inc; host or cells: baculovirus expression system
How it was run: as §1

[3] = target: T3, JAK3 (catalytic domain, His-tag) (Homo sapiens, UniProt P52333); assay: JAK kinase assay (HTRF, phosphorylation of TK substrate-biotin), JAK3; conditions: ATP at Km (2 μM)
T3 construct: All four purified enzymes contain only the catalytic domain; His (N); purchased Carna Biosciences, Inc; host or cells: baculovirus expression system
How it was run: as §1

[4] = target: T4, TYK2 (aa 871-1187, catalytic domain, GST-tag) (Homo sapiens, UniProt P29597); assay: JAK kinase assay (HTRF, phosphorylation of TK substrate-biotin), TYK2; conditions: ATP at Km (13 μM)
T4 construct: JAK1 (aa 850-1154) and TYK2 (aa 871-1187) are expressed with an N-terminally fused GST-tag; GST (N); purchased Carna Biosciences, Inc; host or cells: baculovirus expression system
T4 sequence (P29597 871-1187): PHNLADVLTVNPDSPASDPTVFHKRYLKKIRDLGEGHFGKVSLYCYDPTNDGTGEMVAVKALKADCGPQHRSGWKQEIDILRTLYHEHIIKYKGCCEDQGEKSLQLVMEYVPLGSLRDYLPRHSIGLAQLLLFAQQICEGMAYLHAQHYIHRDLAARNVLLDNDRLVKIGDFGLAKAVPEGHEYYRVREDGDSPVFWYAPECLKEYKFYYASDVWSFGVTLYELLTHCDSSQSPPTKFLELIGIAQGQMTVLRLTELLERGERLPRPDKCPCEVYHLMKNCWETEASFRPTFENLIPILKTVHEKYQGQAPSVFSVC
How it was run: as §1

[5] = HTRF assay, read-out: JAK2 kinase inhibitory activity (EC50)
[6] = HTRF assay, read-out: JAK1 kinase inhibitory activity (EC50)
[7] = HTRF assay, read-out: JAK3 kinase inhibitory activity (EC50)
[8] = HTRF assay, read-out: TYK2 kinase inhibitory activity (EC50)
[9] = HTRF assay, read-out: JAK2 kinase inhibitory activity (EC50 indicator)
[10] = HTRF assay, read-out: JAK1 kinase inhibitory activity (EC50 indicator)
[11] = HTRF assay, read-out: JAK3 kinase inhibitory activity (EC50 indicator)
[12] = HTRF assay, read-out: TYK2 kinase inhibitory activity (EC50 indicator)
[13] = read-out: JAK2 kinase inhibitory activity (EC50 indicator)
[14] = read-out: JAK1 kinase inhibitory activity (EC50 indicator)
[15] = read-out: JAK3 kinase inhibitory activity (EC50 indicator)
[16] = read-out: TYK2 kinase inhibitory activity (EC50 indicator)

T3 sequence (P52333 822-1111 limits assumed): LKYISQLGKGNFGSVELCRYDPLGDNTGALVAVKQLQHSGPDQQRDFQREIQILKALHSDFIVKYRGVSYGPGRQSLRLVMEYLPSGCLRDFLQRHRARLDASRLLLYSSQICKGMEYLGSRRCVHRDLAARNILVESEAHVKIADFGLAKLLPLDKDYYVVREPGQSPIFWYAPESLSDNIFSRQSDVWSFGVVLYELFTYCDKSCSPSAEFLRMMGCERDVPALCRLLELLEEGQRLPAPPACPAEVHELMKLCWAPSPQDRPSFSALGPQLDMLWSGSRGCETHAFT
T2 sequence (P23458 850-1154): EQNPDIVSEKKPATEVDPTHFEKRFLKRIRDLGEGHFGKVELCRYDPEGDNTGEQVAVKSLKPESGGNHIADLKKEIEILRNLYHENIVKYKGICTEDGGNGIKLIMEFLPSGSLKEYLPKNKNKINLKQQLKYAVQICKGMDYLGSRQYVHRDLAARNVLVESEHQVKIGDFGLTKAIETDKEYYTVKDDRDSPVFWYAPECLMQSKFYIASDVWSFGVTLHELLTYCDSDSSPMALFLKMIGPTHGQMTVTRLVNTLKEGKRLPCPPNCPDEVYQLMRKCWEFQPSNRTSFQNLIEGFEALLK
T1 sequence (O60674 849-1124 limits assumed): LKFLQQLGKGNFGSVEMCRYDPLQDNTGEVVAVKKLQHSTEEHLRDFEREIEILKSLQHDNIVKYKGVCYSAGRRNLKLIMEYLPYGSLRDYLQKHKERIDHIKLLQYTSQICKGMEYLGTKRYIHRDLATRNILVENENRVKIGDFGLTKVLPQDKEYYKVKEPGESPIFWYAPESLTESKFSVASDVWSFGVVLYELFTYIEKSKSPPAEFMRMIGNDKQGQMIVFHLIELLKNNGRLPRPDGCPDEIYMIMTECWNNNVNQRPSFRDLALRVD

Structure (SMILES) | EC50 [1, 9] [nM] | EC50 [2, 10] [nM] | EC50 [3, 11] [nM] | EC50 [4, 12] [nM] | EC50 [1, 13] [nM] | EC50 [2, 14] [nM] | EC50 [3, 15] [nM] | EC50 [4, 16] [nM] | also measured
O=C(CNc1ccccc1)N1CCN(c2ncnc3[nH]ccc23)CC12CC2 [Example 451, 2-Phenylamino-1-[7-(7H-pyrrolo[2,3-d]pyrimidin-4-yl)-4,7-diaza-spiro[2.5]oct-4-yl]-ethanone] | – | – | – | – | – | – | – | – | EC50 [1, 5]: < 100 nM; EC50 [2, 6]: < 100 nM; EC50 [3, 7]: 100 to 500 nM; EC50 [4, 8]: > 500 nM
CCN(CC)S(=O)(=O)N1CCN(c2ncnc3[nH]ccc23)CC12CC2 [Example 459, 7-(7H-Pyrrolo[2,3-d]pyrimidin-4-yl)-4,7-diaza-spiro[2.5]octane-4-sulfonic acid diethylamide] | – | – | – | – | – | – | – | – | EC50 [1, 5]: < 100 nM; EC50 [2, 6]: < 100 nM; EC50 [3, 7]: 100 to 500 nM; EC50 [4, 8]: 100 to 500 nM
N#Cc1ccc(CC(=O)N2CCN(c3ncnc4[nH]cc(Cl)c34)CC23CC3)cc1 [Example 324, 4-{2-[7-(5-Chloro-7H-pyrrolo[2,3-d]pyrimidin-4-yl)-4,7-diaza-spiro[2.5]oct-4-yl]-2-oxo-ethyl}-benzonitrile] | < 100 | < 100 | < 100 | > 500 | – | – | – | – | –
N#Cc1ccc(C(=O)N2CCN(c3ncnc4[nH]ccc34)CC23CC3)s1 [Example 193, 5-[7-(7H-Pyrrolo[2,3-d]pyrimidin-4-yl)-4,7-diaza-spiro[2.5]octane-4-carbonyl]-thiophene-2-carbonitrile] | – | – | – | – | < 100 | < 100 | < 100 | < 100 | –
CC(C)(C#N)C(=O)N1[C@@H]2CC[C@@H]1CN(c1ncnc3[nH]ccc13)C2 [Example 239, 2,2-Dimethyl-3-oxo-3-[3-(7H-pyrrolo[2,3-d]pyrimidin-4-yl)-3,8-diaza-bicyclo[3.2.1]oct-8-yl]-propionitrile] | 100 to 500 | 100 to 500 | 100 to 500 | > 500 | – | – | – | – | –
O=C(Cc1ccccc1)N1CCN(c2ncnc3[nH]ccc23)CC12CC2 [Example 152, 2-Phenyl-1-[7-(7H-pyrrolo[2,3-d]pyrimidin-4-yl)-4,7-diaza-spiro[2.5]oct-4-yl]-ethanone] | – | – | – | – | < 100 | < 100 | < 100 | 100 to 500 | –
COc1cnc2[nH]ccc2c1N1CCN(C(=O)c2ccc(C#N)cc2)C2(CC2)C1 [Example 286, 4-[7-(5-Methoxy-1H-pyrrolo[2,3-b]pyridin-4-yl)-4,7-diaza-spiro[2.5]octane-4-carbonyl]-benzonitrile] | > 500 | > 500 | > 500 | > 500 | – | – | – | – | –
O=C1CC(C(=O)N2CCN(c3ncnc4[nH]ccc34)CC23CC3)c2ccccc21 (centres unmarked) [Example 126, 3-[7-(7H-Pyrrolo[2,3-d]pyrimidin-4-yl)-4,7-diaza-spiro[2.5]octane-4-carbonyl]-indan-1-one] | – | – | – | – | < 100 | < 100 | 100 to 500 | > 500 | –
O=C(c1ccc(S(=O)(=O)NCc2cccs2)cc1)N1CCN(c2ncnc3[nH]ccc23)CC12CC2 [Example 204, 4-[7-(7H-Pyrrolo[2,3-d]pyrimidin-4-yl)-4,7-diaza-spiro[2.5]octane-4-carbonyl]-N-thiophen-2-ylmethyl-benzenesulfonamide] | – | – | – | – | < 100 | < 100 | < 100 | 100 to 500 | –
O=C(c1cc2c(s1)CCC2)N1C2CCC1CN(c1ncnc3[nH]ccc13)C2 [Example 139, (5,6-Dihydro-4H-cyclopenta[b]thiophen-2-yl)-[3-(7H-pyrrolo[2,3-d]pyrimidin-4-yl)-3,8-diaza-bicyclo[3.2.1]oct-8-yl]-methanone] | – | – | – | – | < 100 | < 100 | 100 to 500 | > 500 | –
O=C(c1cccc(-c2ccccc2)c1)N1CCN(c2ncnc3[nH]ccc23)CC12CC2 [Example 6, Biphenyl-3-yl-[7-(7H-pyrrolo[2,3-d]pyrimidin-4-yl)-4,7-diazaspiro[2.5]oct-4-yl]methanone] | – | – | – | – | < 100 | < 100 | 100 to 500 | 100 to 500 | –
O=C(C1CCOC1)N1C2CCC1CN(c1ncnc3[nH]ccc13)C2 (centres unmarked) [Example 144, [3-(7H-Pyrrolo[2,3-d]pyrimidin-4-yl)-3,8-diaza-bicyclo[3.2.1]oct-8-yl]-(tetrahydro-furan-3-yl)-methanone] | – | – | – | – | < 100 | 100 to 500 | > 500 | > 500 | –

Continued, in another order:

EC50 [1, 9] [nM] | EC50 [2, 10] [nM] | EC50 [3, 11] [nM] | EC50 [4, 12] [nM] | EC50 [1, 13] [nM] | EC50 [2, 14] [nM] | EC50 [3, 15] [nM] | EC50 [4, 16] [nM] | Structure (SMILES) | also measured
– | – | – | – | < 100 | 100 to 500 | 100 to 500 | > 500 | O=C(C1CCc2ccccc21)N1CCN(c2ncnc3[nH]ccc23)CC12CC2 (centres unmarked) [Example 105, Indan-1-yl-[7-(7H-pyrrolo[2,3-d]pyrimidin-4-yl)-4,7-diaza-spiro[2.5]oct-4-yl]-methanone] | –
< 100 | < 100 | 100 to 500 | > 500 | – | – | – | – | N#CCOc1cccc(C(=O)N2[C@@H]3CC[C@@H]2CN(c2ncnc4[nH]ccc24)C3)c1 [Example 343, {3-[3-(7H-Pyrrolo[2,3-d]pyrimidin-4-yl)-3,8-diaza-bicyclo[3.2.1]octane-8-carbonyl]-phenoxy}-acetonitrile] | –
< 100 | 100 to 500 | < 100 | > 500 | – | – | – | – | Cc1c[nH]c2ncnc(N3CCN(C(=O)Cc4ccc(C#N)cc4)C4(CC4)C3)c12 [Example 334, 4-{2-[7-(5-Methyl-7H-pyrrolo[2,3-d]pyrimidin-4-yl)-4,7-diaza-spiro[2.5]oct-4-yl]-2-oxo-ethyl}-benzonitrile] | –
< 100 | 100 to 500 | > 500 | > 500 | – | – | – | – | O=C(c1cnccn1)N1CCN(c2ccnc3[nH]ccc23)CC12CC2 [Example 225, Pyrazin-2-yl-[7-(1H-pyrrolo[2,3-b]pyridin-4-yl)-4,7-diaza-spiro[2.5]oct-4-yl]-methanone] | –
100 to 500 | 100 to 500 | 100 to 500 | > 500 | – | – | – | – | COc1cnc2[nH]ccc2c1N1CCN(C(=O)c2csc3ccccc23)C2(CC2)C1 [Example 289, Benzo[b]thiophen-3-yl-[7-(5-methoxy-1H-pyrrolo[2,3-b]pyridin-4-yl)-4,7-diaza-spiro[2.5]oct-4-yl]-methanone] | –
< 100 | < 100 | < 100 | 100 to 500 | – | – | – | – | N#Cc1ccc(C2(C(=O)N3CCN(c4ncnc5[nH]ccc45)CC34CC4)CC2)cc1 [Example 429, 4-{1-[7-(7H-Pyrrolo[2,3-d]pyrimidin-4-yl)-4,7-diaza-spiro[2.5]octane-4-carbonyl]-cyclopropyl}-benzonitrile] | –
< 100 | < 100 | < 100 | < 100 | – | – | – | – | Cc1nccnc1C(=O)N1CCN(c2ncnc3[nH]ccc23)CC12CC2 [Example 417, (3-Methyl-pyrazin-2-yl)-[7-(7H-pyrrolo[2,3-d]pyrimidin-4-yl)-4,7-diaza-spiro[2.5]oct-4-yl]-methanone] | –
< 100 | < 100 | 100 to 500 | > 500 | – | – | – | – | CS(=O)(=O)c1ccc(C(=O)N2[C@@H]3CC[C@@H]2CN(c2ncnc4[nH]ccc24)C3)cc1 [Example 356, (4-Methanesulfonyl-phenyl)-[3-(7H-pyrrolo[2,3-d]pyrimidin-4-yl)-3,8-diaza-bicyclo[3.2.1]oct-8-yl]-methanone] | –
– | – | – | – | < 100 | < 100 | 100 to 500 | > 500 | N#Cc1cccc(CS(=O)(=O)N2CCN(c3ncnc4[nH]ccc34)CC23CC3)c1 [Example 76, 3-[7-(7H-Pyrrolo[2,3-d]pyrimidin-4-yl)-4,7-diaza-spiro[2.5]octane-4-sulfonylmethyl]-benzonitrile] | –
– | – | – | – | < 100 | < 100 | 100 to 500 | 100 to 500 | O=C(c1ccccn1)N1CCN(c2ncnc3[nH]ccc23)CC12CC2 [Example 2, Pyridin-2-yl-[7-(7H-pyrrolo[2,3-d]pyrimidin-4-yl)-4,7-diazaspiro[2.5]oct-4-yl]methanone] | –
– | – | – | – | < 100 | < 100 | 100 to 500 | > 500 | Cc1ccc2[nH]c(C(=O)N3C4CCC3CN(c3ncnc5[nH]ccc35)C4)cc2c1 [Example 200, (5-Methyl-1H-indol-2-yl)-[3-(7H-pyrrolo[2,3-d]pyrimidin-4-yl)-3,8-diaza-bicyclo[3.2.1]oct-8-yl]-methanone] | –
